In brackets after ≈: the same amount, converted by molar mass.
Key:
[1] = system: Staphylococcus aureus; experiment: microbe, parasite or virus in culture; settings: ATCC 43300, 18 h, ASSAY_TEST Inhibition of Bacterial Growth, detection method Absorption (OD600), MEDIA CAMHB, plate type 384well, NBS, CORNING #3640
Description: Antibacterial activity against Staphylococcus aureus MRSA ATCC 43300 (CO-ADD:GP_020); MIC in CAMBH media, using NBS plates, by OD(600)

[2] = system: Cryptococcus neoformans
Description: Antifungal activity against Cryptococcus neoformans H99 ATCC 208821 (CO-ADD:FG_002); MIC in YNB media using NBS plates, by Resazurin OD(600-570)

[3] = system: Acinetobacter baumannii; experiment: microbe, parasite or virus in culture; settings: ATCC 19606, 18 h, ASSAY_TEST Inhibition of Bacterial Growth, detection method Absorption (OD600), MEDIA CAMHB, plate type 384well, NBS, CORNING #3640
Description: Antibacterial activity against Acinetobacter baumannii ATCC 19606 (CO-ADD:GN_034); MIC in CAMBH media using NBS plates, by OD600

[4] = system: Pseudomonas aeruginosa; experiment: microbe, parasite or virus in culture; settings: ATCC 27853, 18 h, ASSAY_TEST Inhibition of Bacterial Growth, detection method Absorption (OD600), MEDIA CAMHB, plate type 384well, NBS, CORNING #3640
Description: Antibacterial activity against Pseudomonas aeruginosa ATCC 27853 (CO-ADD:GN_042); MIC in CAMBH media using NBS plates, by OD(600)

[5] = system: Candida albicans; experiment: microbe, parasite or virus in culture; settings: ATCC 90028, ASSAY_TEST Inhibition of Fungal Growth, detection method Absorption (OD530), plate type 384well, NBS, CORNING #3640
Description: Antifungal activity against Candida albicans ATCC 90028 (CO-ADD:FG_001); MIC in YNB media using NBS plates, by OD630

[6] = system: Escherichia coli; experiment: microbe, parasite or virus in culture; settings: ATCC 25922, 18 h, ASSAY_TEST Inhibition of Bacterial Growth, detection method Absorption (OD600), MEDIA CAMHB, plate type 384well, NBS, CORNING #3640
Description: Antibacterial activity against Escherichia coli ATCC 25922 (CO-ADD:GN_001); MIC in CAMBH media using NBS plates, by OD(600)

[7] = system: Klebsiella pneumoniae; experiment: microbe, parasite or virus in culture; settings: ATCC 700603, 18 h, ASSAY_TEST Inhibition of Bacterial Growth, detection method Absorption (OD600), MEDIA CAMHB, plate type 384well, NBS, CORNING #3640
Description: Antibacterial activity against Klebsiella pneumoniae MDR ATCC 70063 (CO-ADD:GN_003); MIC in CAMBH media using NBS plates, by OD(600)

[8] = system: HEK293; experiment: cells; assay type: functional; settings: Homo sapiens, ATCC CRL1573, HEK293; ASSAY_TEST Inhibition of Cell Viability; detection method Resazurin; Fluorescence (ex560/em590); MEDIA DMEM with 10% FBS; plate type 384well; TC; CORNING #3712; time 18 hr

SMILES | MIC [1] | MIC [2] | MIC [3] | MIC [4] | MIC [5] | MIC [6] | MIC [7] | CC50 [8]
Cc1c2cc[n+](CCN3CCCCC3)cc2c(C)c2c1[nH]c1ccc(O)cc12 | > 10 µM | 10 µM | > 10 µM | > 10 µM | > 10 µM | > 10 µM | > 10 µM | > 10 µM
Cc1nc(/N=N/c2ccccc2)[nH]c1/N=N/c1ccccc1 | > 10 µM | > 10 µM | > 10 µM | > 10 µM | > 10 µM | > 10 µM | > 10 µM | > 10 µM
O=Cc1ccc(O)c2ncccc12 | > 10 µM | 1.25 µM (≈ 0.216 µg/mL) | > 10 µM | > 10 µM | 0.625 µM (≈ 0.108 µg/mL) | > 10 µM | > 10 µM | > 10 µM
CN(C)c1n/c(=N/c2cccc(Cl)c2)ss1 | > 10 µM | > 10 µM | > 10 µM | > 10 µM | 10 µM (≈ 2.72 µg/mL) | > 10 µM | > 10 µM | > 10 µM
O=[N+]([O-])c1cc(F)c2cccnc2c1O | > 10 µM | 10 µM (≈ 2.08 µg/mL) | > 10 µM | > 10 µM | 10 µM (≈ 2.08 µg/mL) | > 10 µM | > 10 µM | > 10 µM
O=[N+]([O-])c1oc2ccc3ccccc3c2c1CCO | 2.5 µM (≈ 0.643 µg/mL) | > 10 µM | > 10 µM | > 10 µM | > 10 µM | 5 µM (≈ 1.29 µg/mL) | > 10 µM | 1.13 µM
CC1(C)CC(=O)CC(C)(C)N1O | > 10 µM | > 10 µM | > 10 µM | > 10 µM | > 10 µM | > 10 µM | > 10 µM | > 10 µM
Cc1cc2nc(CS)[nH]c2cc1C | > 10 µM | > 10 µM | > 10 µM | > 10 µM | > 10 µM | > 10 µM | > 10 µM | > 10 µM
OC(c1cc(-c2ccc(Cl)cc2)nc2ccccc12)C1CCCCN1 (centres undefined) | > 10 µM | > 10 µM | > 10 µM | > 10 µM | > 10 µM | > 10 µM | > 10 µM | > 10 µM
Oc1ccc2ccccc2c1/N=N/c1nccs1 | > 10 µM | 2.5 µM (≈ 0.638 µg/mL) | > 10 µM | > 10 µM | 10 µM (≈ 2.55 µg/mL) | > 10 µM | > 10 µM | > 10 µM
O=[N+]([O-])c1cc([N+](=O)[O-])c2cccnc2c1O | > 10 µM | > 10 µM | > 10 µM | > 10 µM | 10 µM (≈ 2.35 µg/mL) | > 10 µM | > 10 µM | > 10 µM
Cc1cc(N)c2cc(NC(=O)/C=C\c3ccccc3Cl)ccc2n1 | 10 µM (≈ 3.38 µg/mL) | 5 µM (≈ 1.69 µg/mL) | > 10 µM | > 10 µM | > 10 µM | > 10 µM | > 10 µM | 2.78 µM
COc1ccccc1/C=C/C(=O)/C=C/c1ccccc1O | > 10 µM | > 10 µM | > 10 µM | > 10 µM | > 10 µM | > 10 µM | > 10 µM | 3.95 µM
Cn1c(=S)c2nc(SCCN3CCCC3)[nH]c2n(C)c1=O | > 10 µM | > 10 µM | > 10 µM | > 10 µM | > 10 µM | 0.156 µM (≈ 0.0509 µg/mL) | > 10 µM | > 10 µM
COC12C(COC(N)=O)C3=C(C(=O)C(C)=C(N)C3=O)N1CC1C2N1C (centres undefined) | 0.156 µM (≈ 0.0544 µg/mL) | > 10 µM | > 10 µM | > 10 µM | > 10 µM | 5 µM (≈ 1.74 µg/mL) | > 10 µM | > 10 µM
O=C1N=C(Nc2nc3ccccc3[nH]2)c2ccccc21 | > 10 µM | > 10 µM | > 10 µM | > 10 µM | 10 µM (≈ 2.62 µg/mL) | > 10 µM | > 10 µM | > 10 µM
CN(C)c1ccc(/N=N/c2ccccn2)cc1 | > 10 µM | > 10 µM | > 10 µM | > 10 µM | 10 µM (≈ 2.26 µg/mL) | > 10 µM | > 10 µM | > 10 µM
Cc1ccc2ccc(C#N)cc2c1O | > 10 µM | > 10 µM | > 10 µM | > 10 µM | > 10 µM | > 10 µM | > 10 µM | > 10 µM

Source: ChEMBL document CHEMBL4296182, “CO-ADD screening of NIH NCI Diversity Set V”
